Source: patent US20260285850A1, “SUBSTITUTED OXAZOLIDINONES AND IMIDAZOLINONES AS HERBICIDES” (FMC CORPORATION, priority 2023, published 2026)

Experiments:
Type in all cases: in vivo
[1] = tested on: barnyardgrass (Echinochloa crusgalli); assay: Test B flooded paddy test, visual plant response rating 0-100; conditions: 250 g ai/ha, Flood, applied to paddy water, evaluated after 13 days
How it was run: (§1)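 Paddy-water application: test compounds went directly into water flooded 3 cm above the soil surface, with plants at 2 leaves. After a 13-day greenhouse period, responses were judged by eye relative to controls; a dash marks an untested entry.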

[2] = tested on: ducksalad (Heteranthera limosa); assay: as above; conditions: 250 g ai/ha, Flood, applied to paddy water, evaluated after 13 days
How it was run: as §1

[3] = tested on: sedge, umbrella (small-flower umbrella sedge, Cyperus difformis); assay: as above; conditions: 250 g ai/ha, Flood, applied to paddy water, evaluated after 13 days
How it was run: as §1

rice (Oryza sativa) = assay: as above; conditions: 250 g ai/ha, Flood, applied to paddy water, evaluated after 13 days
How it was run: as §1

[4] = tested on: oat, wild (wild oat, Avena fatua); assay: Test A postemergence application, visual injury rating 0-100; conditions: 10 days
How it was run: (§2)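 Greenhouse test: loam/sand pots received a surfactant-containing formulation, as a preemergence directed soil spray or a postemergence spray on young plants. Injury was judged visually at day 10 relative to untreated controls.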

[5] = tested on: blackgrass (Alopecurus myosuroides); assay: as above; conditions: 10 days
How it was run: as §2

soybean (Glycine max) [6] = assay: as above; conditions: 10 days
How it was run: as §2

[7] = tested on: green foxtail (Setaria viridis); assay: as above; conditions: 10 days
How it was run: as §2

[8] = tested on: ryegrass, Italian (italian ryegrass, Lolium multiflorum); assay: as above; conditions: 10 days
How it was run: as §2

[9] = tested on: ragweed (common ragweed, Ambrosia artemisiifolia); assay: as above; conditions: 10 days
How it was run: as §2

[10] = tested on: palmer (palmer amaranth, palmer pigweed, Amaranthus palmeri); assay: as above; conditions: 10 days
How it was run: as §2

kochia (Bassia scoparia) [11] = assay: as above; conditions: 10 days
How it was run: as §2

[12] = tested on: wheat (Triticum aestivum); assay: as above; conditions: 10 days
How it was run: as §2

corn (Zea mays) [13] = assay: as above; conditions: 10 days
How it was run: as §2

[14] = tested on: barnyardgrass (Echinochloa crus-galli); assay: as above; conditions: 10 days
How it was run: as §2

[15] = tested on: horseweed (Erigeron canadensis); assay: as above; conditions: 10 days
How it was run: as §2

[16] = tested on: galium (catchweed bedstraw, Galium aparine); assay: as above; conditions: 10 days
How it was run: as §2

[17] = tested on: oat, wild (wild oat, Avena fatua); assay: Test A preemergence soil spray, visual injury rating 0-100; conditions: 10 days, 0 = no effect, 100 = complete control
How it was run: as §2

[18] = tested on: blackgrass (Alopecurus myosuroides); assay: as above; conditions: 10 days, 0 = no effect, 100 = complete control
How it was run: as §2

soybean (Glycine max) [19] = assay: as above; conditions: 10 days, 0 = no effect, 100 = complete control
How it was run: as §2

[20] = tested on: green foxtail (Setaria viridis); assay: as above; conditions: 10 days, 0 = no effect, 100 = complete control
How it was run: as §2

[21] = tested on: ryegrass, Italian (italian ryegrass, Lolium multiflorum); assay: as above; conditions: 10 days, 0 = no effect, 100 = complete control
How it was run: as §2

[22] = tested on: ragweed (common ragweed, Ambrosia artemisiifolia); assay: as above; conditions: 10 days, 0 = no effect, 100 = complete control
How it was run: as §2

[23] = tested on: palmer (palmer amaranth, palmer pigweed, Amaranthus palmeri); assay: as above; conditions: 10 days, 0 = no effect, 100 = complete control
How it was run: as §2

kochia (Bassia scoparia) [24] = assay: as above; conditions: 10 days, 0 = no effect, 100 = complete control
How it was run: as §2

[25] = tested on: wheat (Triticum aestivum); assay: as above; conditions: 10 days, 0 = no effect, 100 = complete control
How it was run: as §2

corn (Zea mays) [26] = assay: as above; conditions: 10 days, 0 = no effect, 100 = complete control
How it was run: as §2

[27] = tested on: barnyardgrass (Echinochloa crus-galli); assay: as above; conditions: 10 days, 0 = no effect, 100 = complete control
How it was run: as §2

[28] = 31 g ai/ha, postemergence, 0 = no effect, 100 = complete control
[29] = Postemergence, 125 g ai/ha, 0 is no effect, 100 is complete control

CNC(=O)C1CCC(NC(=O)C2(C)CN(c3cc(F)cc(F)c3)C(=O)O2)C1 (stereo not shown) [Compound 14]
Plant response rating, Barnyardgrass (0 to 100 scale, 0 is no effect and 100 is complete control) [1]: 0
Plant response rating, Ducksalad (0 to 100 scale, 0 is no effect and 100 is complete control) [2]: 0
Plant response rating, Sedge, Umbrella (0 to 100 scale, 0 is no effect and 100 is complete control) [3]: 0
Plant response rating, Rice (0 to 100 scale, 0 is no effect and 100 is complete control) (rice (Oryza sativa)): 0
Oat, Wild plant response rating (0-100) [4, 28]: 0
Oat, Wild plant response rating (0 to 100 scale) [4, 29]: 0
Blackgrass plant response rating (0-100) [5, 28]: 0
Blackgrass plant response rating (0 to 100 scale) [5, 29]: 0
Soybean plant response rating (0-100) (soybean (Glycine max) [6]; [28]): 0
Soybean plant response rating (0 to 100 scale) (soybean (Glycine max) [6]; [29]): 0
Foxtail, Green plant response rating (0-100) [7, 28]: 0
Foxtail, Green plant response rating (0 to 100 scale) [7, 29]: 0
Ryegrass, Italian plant response rating (0-100) [8, 28]: 0
Ryegrass, Italian plant response rating (0 to 100 scale) [8, 29]: 0
Ragweed plant response rating (0-100) [9, 28]: 0
Ragweed plant response rating (0 to 100 scale) [9, 29]: 0
Amaranth, Palmer plant response rating (0-100) [10, 28]: 0
Amaranth, Palmer / Pigweed, Palmer plant response rating (0 to 100 scale) [10, 29]: 0
Kochia plant response rating (0-100) (kochia (Bassia scoparia) [11]; [28]): 0
Kochia plant response rating (0 to 100 scale) (kochia (Bassia scoparia) [11]; [29]): 0
Wheat plant response rating (0-100) [12, 28]: 0
Wheat plant response rating (0 to 100 scale) [12, 29]: 0
Corn plant response rating (0-100) (corn (Zea mays) [13]; [28]): 0
Corn plant response rating (0 to 100 scale) (corn (Zea mays) [13]; [29]): 20
Barnyardgrass plant response rating (0-100) [14, 28]: 0
Barnyardgrass plant response rating (0 to 100 scale) [14, 29]: 0
Horseweed plant response rating (0-100) [15, 28]: 0
Horseweed plant response rating (0 to 100 scale) [15, 29]: 0
Galium plant response rating (0-100) [16, 28]: 0
Galium plant response rating (0 to 100 scale) [16, 29]: 0
Oat, Wild plant response rating (0-100) ([17]; 31 g ai/ha): 0
Oat, Wild plant response rating (0 to 100 scale) ([17]; 125 g ai/ha): 0
Blackgrass plant response rating (0-100) ([18]; 31 g ai/ha): 0
Blackgrass plant response rating (0 to 100 scale) ([18]; 125 g ai/ha): 0
Soybean plant response rating (0-100) (soybean (Glycine max) [19]; 31 g ai/ha): 0
Soybean plant response rating (0 to 100 scale) (soybean (Glycine max) [19]; 125 g ai/ha): 0
Foxtail, Green plant response rating (0-100) ([20]; 31 g ai/ha): 0
Foxtail, Green plant response rating (0 to 100 scale) ([20]; 125 g ai/ha): 0
Ryegrass, Italian plant response rating (0-100) ([21]; 31 g ai/ha): 0
Ryegrass, Italian plant response rating (0 to 100 scale) ([21]; 125 g ai/ha): 0
Ragweed plant response rating (0-100) ([22]; 31 g ai/ha): 0
Ragweed plant response rating (0 to 100 scale) ([22]; 125 g ai/ha): 30
Amaranth, Palmer plant response rating (0-100) ([23]; 31 g ai/ha): 0
Amaranth, Palmer plant response rating (0 to 100 scale) ([23]; 125 g ai/ha): 0
Kochia plant response rating (0-100) (kochia (Bassia scoparia) [24]; 31 g ai/ha): 0
Kochia plant response rating (0 to 100 scale) (kochia (Bassia scoparia) [24]; 125 g ai/ha): 0
Wheat plant response rating (0-100) ([25]; 31 g ai/ha): 0
Wheat plant response rating (0 to 100 scale) ([25]; 125 g ai/ha): 0
Corn plant response rating (0-100) (corn (Zea mays) [26]; 31 g ai/ha): 0
Corn plant response rating (0 to 100 scale) (corn (Zea mays) [26]; 125 g ai/ha): 0
Barnyardgrass plant response rating (0-100) ([27]; 31 g ai/ha): 0
Barnyardgrass plant response rating (0 to 100 scale) ([27]; 125 g ai/ha): 0
